# Test results from patent US8796289B2 (AbbVie Inc., priority 2011, dated 2014).
# Target: GST-tagged-Wee1 kinase (Homo sapiens, UniProt P30291)
# Assay: Wee1 time-resolved fluorescence equilibrium binding assay (displacement of Oregon Green-labeled ATP-competitive kinase probe)
# Settings: not given
# Experimental: Wee1 kinase was assayed using a time-resolved fluorescence equilibrium binding assay monitoring displacement of a rapidly reversible Oregon Green-labeled ATP-competitive kinase probe (N-(2-(2-(2-(4-(4-(5-chloro-4-(2-(1-hydroxycyclobutyl)thiazol-5-yl)-1H-pyrrolo[2,3-b]pyridin-2-yl)phenyl)piperazin-1-yl)ethoxy)ethoxy)ethyl)-2′,7′-difluoro-3′,6′-dihydroxy-3-oxo-3H-spiro[isobenzofuran-1,9′-xanthene]-5-carboxamide) by competitive Wee1 inhibitors.
# Sequence of GST-tagged-Wee1 kinase (P30291 whole entry): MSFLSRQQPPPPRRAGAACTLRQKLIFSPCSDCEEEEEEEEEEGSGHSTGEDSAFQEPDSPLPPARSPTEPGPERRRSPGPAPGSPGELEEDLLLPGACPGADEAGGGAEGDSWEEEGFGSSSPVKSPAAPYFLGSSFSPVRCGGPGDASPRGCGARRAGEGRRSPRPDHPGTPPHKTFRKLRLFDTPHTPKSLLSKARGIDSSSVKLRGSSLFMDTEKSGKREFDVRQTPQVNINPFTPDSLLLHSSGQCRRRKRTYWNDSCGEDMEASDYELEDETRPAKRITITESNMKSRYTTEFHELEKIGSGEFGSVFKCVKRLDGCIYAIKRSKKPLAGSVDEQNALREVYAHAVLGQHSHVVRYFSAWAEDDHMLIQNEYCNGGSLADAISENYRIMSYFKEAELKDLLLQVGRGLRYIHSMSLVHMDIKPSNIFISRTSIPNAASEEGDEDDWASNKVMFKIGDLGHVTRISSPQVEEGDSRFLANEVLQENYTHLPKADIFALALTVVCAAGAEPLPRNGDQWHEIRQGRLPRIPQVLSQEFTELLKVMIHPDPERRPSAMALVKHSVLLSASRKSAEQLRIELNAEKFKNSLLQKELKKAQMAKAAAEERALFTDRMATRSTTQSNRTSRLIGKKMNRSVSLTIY
row,Ki [pM],SMILES
1,13000,"CN1CCN(c2ccc(Nc3ncc4c(=O)n(-c5ccncc5Cl)nc(-c5ccccn5)c4n3)cc2)CC1 [Example 384, 6-(3-chloropyridin-4-yl)-2-{[4-(4-methylpiperazin-1-yl)phenyl]amino}-8-(pyridin-2-yl)pyrimido[4,5-d]pyridazin-5(6H)-one]"
2,7200,"O=c1c2cnc(Nc3ccc4c(c3)CNCC43CC3)nc2c(-c2ccccn2)nn1-c1ccncc1Cl [Example 385, 6-(3-chloropyridin-4-yl)-2-(2′,3′-dihydro-1′H-spiro[cyclopropane-1,4′-isoquinolin]-7′-ylamino)-8-(pyridin-2-yl)pyrimido[4,5-d]pyridazin-5(6H)-one]"
3,480,"CN1CCN(c2ccc(Nc3ncc4c(=O)n(-c5c(Cl)cccc5Cl)nc(C5CC5)c4n3)cc2)CC1 [Example 386, 8-cyclopropyl-6-(2,6-dichlorophenyl)-2-{[4-(4-methylpiperazin-1-yl)phenyl]amino}pyrimido[4,5-d]pyridazin-5(6H)-one]"
4,330,"CCc1nn(-c2c(Cl)cccc2Cl)c(=O)c2cnc(Nc3ccc(N4CCN(C)CC4)cc3)nc12 [Example 388, 6-(2,6-dichlorophenyl)-8-ethyl-2-{[4-(4-methylpiperazin-1-yl)phenyl]amino}pyrimido[4,5-d]pyridazin-5(6H)-one]"
5,280,"CN1Cc2cc(Nc3ncc4c(=O)n(-c5c(Cl)cccc5Cl)nc(C5CC5)c4n3)ccc2C2(CC2)C1 [Example 389, 8-cyclopropyl-6-(2,6-dichlorophenyl)-2-[(2′-methyl-2′,3′-dihydro-1′H-spiro[cyclopropane-1,4′-isoquinolin]-7′-yl)amino]pyrimido[4,5-d]pyridazin-5(6H)-one]"
6,410,"O=c1c2cnc(Nc3ccc4c(c3)CNCC4)nc2c(C2CC2)nn1-c1c(Cl)cccc1Cl [Example 390, 8-cyclopropyl-6-(2,6-dichlorophenyl)-2-(1,2,3,4-tetrahydroisoquinolin-7-ylamino)pyrimido[4,5-d]pyridazin-5(6H)-one]"
7,930,"O=c1c2cnc(Nc3ccc4c(c3)CNCC43CC3)nc2c(C2CC2)nn1-c1c(Cl)cccc1Cl [Example 391, 8-cyclopropyl-6-(2,6-dichlorophenyl)-2-(2′,3′-dihydro-1′H-spiro[cyclopropane-1,4′-isoquinolin]-7′-ylamino)pyrimido[4,5-d]pyridazin-5(6H)-one]"
8,270,"O=c1c2cnc(Nc3ccc(N4CCNCC4)cc3)nc2c(C2CC2)nn1-c1c(Cl)cccc1Cl [Example 392, 8-cyclopropyl-6-(2,6-dichlorophenyl)-2-{[4-(piperazin-1-yl)phenyl]amino}pyrimido[4,5-d]pyridazin-5(6H)-one]"
9,1000,"Cc1nn(-c2c(Cl)cccc2Cl)c(=O)c2cnc(Nc3ccc(N4CCNCC4)cc3)nc12 [Example 393, 6-(2,6-dichlorophenyl)-8-methyl-2-{[4-(piperazin-1-yl)phenyl]amino}pyrimido[4,5-d]pyridazin-5(6H)-one]"
10,1000,"Cc1nn(-c2c(F)cccc2Cl)c(=O)c2cnc(Nc3ccc(N4CCNCC4)cc3)nc12 [Example 396, 6-(2-chloro-6-fluorophenyl)-8-methyl-2-{[4-(piperazin-1-yl)phenyl]amino}pyrimido[4,5-d]pyridazin-5(6H)-one]"
11,1000,"Cc1nn(-c2c(Cl)cccc2Cl)c(=O)c2cnc(Nc3ccc4c(c3)CC(N(C)C)C4)nc12 (stereo not shown) [Example 397, 6-(2,6-dichlorophenyl)-2-{[2-(dimethylamino)-2,3-dihydro-1H-inden-5-yl]amino}-8-methylpyrimido[4,5-d]pyridazin-5(6H)-one]"
12,1000,"Cc1nn(-c2c(F)cccc2Cl)c(=O)c2cnc(Nc3ccc4c(c3)CNCC4)nc12 [Example 398, 6-(2-chloro-6-fluorophenyl)-8-methyl-2-(1,2,3,4-tetrahydroisoquinolin-7-ylamino)pyrimido[4,5-d]pyridazin-5(6H)-one]"
13,18000,"Cc1nn(-c2ncccc2Cl)c(=O)c2cnc(Nc3ccc(N4CCNCC4)cc3)nc12 [Example 399, 6-(3-chloropyridin-2-yl)-8-methyl-2-{[4-(piperazin-1-yl)phenyl]amino}pyrimido[4,5-d]pyridazin-5(6H)-one]"
14,6700,"Cc1nn(-c2ncccc2Cl)c(=O)c2cnc(Nc3ccc4c(c3)CNCC4)nc12 [Example 400, 6-(3-chloropyridin-2-yl)-8-methyl-2-(1,2,3,4-tetrahydroisoquinolin-7-ylamino)pyrimido[4,5-d]pyridazin-5(6H)-one]"
15,220,"Cc1nn(-c2c(Cl)cccc2Cl)c(=O)c2cnc(Nc3ccc4c(c3)CN(C)CC43CC3)nc12 [Example 401, 6-(2,6-dichlorophenyl)-8-methyl-2-[(2′-methyl-2′,3′-dihydro-1′H-spiro[cyclopropane-1,4′-isoquinolin]-7′-yl)amino]pyrimido[4,5-d]pyridazin-5(6H)-one]"
16,230,"CCc1nn(-c2c(Cl)cccc2Cl)c(=O)c2cnc(Nc3ccc4c(c3)CN(C)CC43CC3)nc12 [Example 402, 6-(2,6-dichlorophenyl)-8-ethyl-2-[(2′-methyl-2′,3′-dihydro-1′H-spiro[cyclopropane-1,4′-isoquinolin]-7′-yl)amino]pyrimido[4,5-d]pyridazin-5(6H)-one]"
17,210,"CCc1nn(-c2c(Cl)cccc2Cl)c(=O)c2cnc(Nc3ccc4c(c3)CNCC4)nc12 [Example 403, 6-(2,6-dichlorophenyl)-8-ethyl-2-(1,2,3,4-tetrahydroisoquinolin-7-ylamino)pyrimido[4,5-d]pyridazin-5(6H)-one]"
18,250,"CCc1nn(-c2c(Cl)cccc2Cl)c(=O)c2cnc(Nc3ccc4c(c3)CNCC43CC3)nc12 [Example 404, 6-(2,6-dichlorophenyl)-2-(2′,3′-dihydro-1′H-spiro[cyclopropane-1,4′-isoquinolin]-7′-ylamino)-8-ethylpyrimido[4,5-d]pyridazin-5(6H)-one]"
19,790,"O=c1c2cnc(Nc3ccc(N4CCNCC4)cc3)nc2c(C(F)F)nn1-c1c(Cl)cccc1Cl [Example 405, 6-(2,6-dichlorophenyl)-8-(difluoromethyl)-2-{[4-(piperazin-1-yl)phenyl]amino}pyrimido[4,5-d]pyridazin-5(6H)-one]"
20,700,"CCc1nn(-c2c(Cl)cccc2Cl)c(=O)c2cnc(Nc3ccc4c(c3)CC(N(C)C)C4)nc12 (stereo not shown) [Example 406, 6-(2,6-dichlorophenyl)-2-{[2-(dimethylamino)-2,3-dihydro-1H-inden-5-yl]amino}-8-ethylpyrimido[4,5-d]pyridazin-5(6H)-one]"
21,210,"O=c1c2cnc(Nc3ccc4c(c3)CNCC43CC3)nc2c(C(F)F)nn1-c1c(Cl)cccc1Cl [Example 407, 6-(2,6-dichlorophenyl)-8-(difluoromethyl)-2-(2′,3′-dihydro-1′H-spiro[cyclopropane-1,4′-isoquinolin]-7′-ylamino)pyrimido[4,5-d]pyridazin-5(6H)-one]"
22,410,"CN(C)C1Cc2ccc(Nc3ncc4c(=O)n(-c5c(Cl)cccc5Cl)nc(C(F)F)c4n3)cc2C1 (stereo not shown) [Example 408, 6-(2,6-dichlorophenyl)-8-(difluoromethyl)-2-{[2-(dimethylamino)-2,3-dihydro-1H-inden-5-yl]amino}pyrimido[4,5-d]pyridazin-5(6H)-one]"
23,1000,"CCc1nn(-c2c(Cl)cccc2Cl)c(=O)c2cnc(Nc3ccc(N4CCNCC4)cc3)nc12 [Example 409, 6-(2,6-dichlorophenyl)-8-ethyl-2-{[4-(piperazin-1-yl)phenyl]amino}pyrimido[4,5-d]pyridazin-5(6H)-one]"
24,1000,"O=c1c2cnc(Nc3ccc4c(c3)CNCC4)nc2c(C(F)F)nn1-c1c(Cl)cccc1Cl [Example 410, 6-(2,6-dichlorophenyl)-8-(difluoromethyl)-2-(1,2,3,4-tetrahydroisoquinolin-7-ylamino)pyrimido[4,5-d]pyridazin-5(6H)-one]"
25,1000,"CN1Cc2cc(Nc3ncc4c(=O)n(-c5c(Cl)cccc5Cl)nc(C(F)F)c4n3)ccc2C2(CC2)C1 [Example 411, 6-(2,6-dichlorophenyl)-8-(difluoromethyl)-2-[(2′-methyl-2′,3′-dihydro-1′H-spiro[cyclopropane-1,4′-isoquinolin]-7′-yl)amino]pyrimido[4,5-d]pyridazin-5(6H)-one]"
26,1000,"CN1CCN(c2ccc(Nc3ncc4c(=O)n(-c5c(Cl)cccc5Cl)nc(C(F)(F)F)c4n3)cc2)CC1 [Example 412, 6-(2,6-dichlorophenyl)-2-{[4-(4-methylpiperazin-1-yl)phenyl]amino}-8-(trifluoromethyl)pyrimido[4,5-d]pyridazin-5(6H)-one]"
27,340,"CN1Cc2cc(Nc3ncc4c(=O)n(-c5c(Cl)cccc5Cl)nc(C(F)(F)F)c4n3)ccc2C2(CC2)C1 [Example 413, 6-(2,6-dichlorophenyl)-2-[(2′-methyl-2′,3′-dihydro-1′H-spiro[cyclopropane-1,4′-isoquinolin]-7′-yl)amino]-8-(trifluoromethyl)pyrimido[4,5-d]pyridazin-5(6H)-one]"
28,750,"CCc1nn(-c2c(Cl)cccc2Cl)c(=O)c2cnc(Nc3ccc(N4CCN(C(C)=O)CC4)cc3)nc12 [Example 414, 2-{[4-(4-acetylpiperazin-1-yl)phenyl]amino}-6-(2,6-dichlorophenyl)-8-ethylpyrimido[4,5-d]pyridazin-5(6H)-one]"
29,1000,"CC(=O)N1Cc2cc(Nc3ncc4c(=O)n(-c5c(Cl)cccc5Cl)nc(C(F)F)c4n3)ccc2C2(CC2)C1 [Example 415, 2-[(2′-acetyl-2′,3′-dihydro-1′H-spiro[cyclopropane-1,4′-isoquinolin]-7′-yl)amino]-6-(2,6-dichlorophenyl)-8-(difluoromethyl)pyrimido[4,5-d]pyridazin-5(6H)-one]"
30,190,"Cc1nn(-c2c(Cl)cccc2Cl)c(=O)c2cnc(Nc3ccc4c(c3)CN(C(N)=O)CC43CC3)nc12 [Example 416, 7′-{[6-(2,6-dichlorophenyl)-8-methyl-5-oxo-5,6-dihydropyrimido[4,5-d]pyridazin-2-yl]amino}-1′H-spiro[cyclopropane-1,4′-isoquinoline]-2′(3′H)-carboxamide]"

# Same assay, conditions: read-out: Wee-1 inhibition Ki
row,Ki [pM],SMILES
1,1000,Cc1nn(-c2c(Cl)cccc2Cl)c(=O)c2cnc(Nc3ccc4c(c3)CNCC4)nc12 [Example 395]
